Values of other authors in patent US20230190793A1, “Pharmaceutical Preparation for Use in the Treatment of Systemic Inflammatory Response Syndrome (SIRS)” (priority 2020, published 2023).

Molecule | Acid dissociation constant as pKa at 298 K
[O-][Cl+2]([O-])O [chloric acid] | 0
peroxochloric acid | approx. 6.2
OCl [hypochlorous acid] | 7.25
